# According to ChEMBL document CHEMBL1201861, “Genomics of Drug Sensitity in Cancer screening data, Wellcome Trust Sanger Institute”:
# Tested on: TK-10;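 also: growth inhibition of TK-10 cells, read out in a cell viability assay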
# Assay: cells
# Type: functional, cell-based, Homo sapiens
# Settings: Homo sapiens, TK-10
# Description: SANGER: Inhibition of human TK10 cell growth in a cell viability assay.
row,Structure (SMILES),IC50
1,CC1(C)CNc2cc(NC(=O)c3cccnc3NCc3ccncc3)ccc21 [MOTESANIB],> 2000 nM

# Tested on: MMAC-SF;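 also: growth inhibition of human MMAC-SF cells, read out with a cell viability assay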
# Assay: cells
# Type: functional, cell-based, Homo sapiens
# Settings: Homo sapiens, MMAC-SF
# Description: SANGER: Inhibition of human MMAC-SF cell growth in a cell viability assay.
row,Structure (SMILES),IC50
1,CC1(C)CNc2cc(NC(=O)c3cccnc3NCc3ccncc3)ccc21 [MOTESANIB],> 2000 nM

# Tested on: KURAMOCHI;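 also: growth inhibition of KURAMOCHI cells, read out with a cell viability assay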
# Assay: cells
# Type: functional, cell-based, Homo sapiens
# Settings: Homo sapiens, KURAMOCHI
# Description: SANGER: Inhibition of human KURAMOCHI cell growth in a cell viability assay.
row,Structure (SMILES),IC50
1,CC1(C)CNc2cc(NC(=O)c3cccnc3NCc3ccncc3)ccc21 [MOTESANIB],> 2000 nM

# Tested on: no-10;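 also: growth inhibition of no-10 cells, read out with a cell viability assay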
# Assay: cells
# Type: functional, cell-based, Homo sapiens
# Settings: Homo sapiens
# Description: SANGER: Inhibition of human no-10 cell growth in a cell viability assay.
row,Structure (SMILES),IC50
1,CC1(C)CNc2cc(NC(=O)c3cccnc3NCc3ccncc3)ccc21 [MOTESANIB],> 2000 nM

# Tested on: MEG-01;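 also: growth inhibition of MEG-01 cells, read out by a cell viability assay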
# Assay: cells
# Type: functional, cell-based, Homo sapiens
# Settings: Homo sapiens, MEG-01
# Description: SANGER: Inhibition of human MEG-01 cell growth in a cell viability assay.
row,Structure (SMILES),IC50
1,CC1(C)CNc2cc(NC(=O)c3cccnc3NCc3ccncc3)ccc21 [MOTESANIB],> 2000 nM

# Tested on: NCI-H1770;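 also: growth inhibition of NCI-H1770 cells determined with a viability readout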
# Assay: cells
# Type: functional, cell-based, Homo sapiens
# Settings: Homo sapiens, NCI-H1770
# Description: SANGER: Inhibition of human NCI-H1770 cell growth in a cell viability assay.
row,Structure (SMILES),IC50
1,CC1(C)CNc2cc(NC(=O)c3cccnc3NCc3ccncc3)ccc21 [MOTESANIB],> 2000 nM

# Tested on: NCI-H23;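 also: cell viability assay measuring growth inhibition of NCI-H23 cells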
# Assay: cells
# Type: functional, cell-based, Homo sapiens
# Settings: Homo sapiens, NCI-H23
# Description: SANGER: Inhibition of human NCI-H23 cell growth in a cell viability assay.
row,Structure (SMILES),IC50
1,CC1(C)CNc2cc(NC(=O)c3cccnc3NCc3ccncc3)ccc21 [MOTESANIB],> 2000 nM

# Tested on: KE-37;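 also: growth inhibition of KE-37 cells, read out with a cell viability assay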
# Assay: cells
# Type: functional, cell-based, Homo sapiens
# Settings: Homo sapiens, KE-37
# Description: SANGER: Inhibition of human KE-37 cell growth in a cell viability assay.
row,Structure (SMILES),IC50
1,CC1(C)CNc2cc(NC(=O)c3cccnc3NCc3ccncc3)ccc21 [MOTESANIB],> 2000 nM

# Tested on: NCI-H209;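 also: growth inhibition of human NCI-H209 cells, measured by a cell viability assay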
# Assay: cells
# Type: functional, cell-based, Homo sapiens
# Settings: Homo sapiens, NCI-H209
# Description: SANGER: Inhibition of human NCI-H209 cell growth in a cell viability assay.
row,Structure (SMILES),IC50
1,CC1(C)CNc2cc(NC(=O)c3cccnc3NCc3ccncc3)ccc21 [MOTESANIB],> 2000 nM

# Tested on: SW 954;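 also: growth inhibition of SW954 human cancer cells, read out as cell viability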
# Assay: cells
# Type: functional, cell-based, Homo sapiens
# Settings: Homo sapiens, SW 954
# Description: SANGER: Inhibition of human SW954 cell growth in a cell viability assay.
row,Structure (SMILES),IC50
1,CC1(C)CNc2cc(NC(=O)c3cccnc3NCc3ccncc3)ccc21 [MOTESANIB],> 2000 nM

# Tested on: KS-1;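 also: growth inhibition of KS-1 cells, read out with a cell viability assay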
# Assay: cells
# Type: functional, cell-based, Homo sapiens
# Settings: Homo sapiens, KS-1
# Description: SANGER: Inhibition of human KS-1 cell growth in a cell viability assay.
row,Structure (SMILES),IC50
1,CC1(C)CNc2cc(NC(=O)c3cccnc3NCc3ccncc3)ccc21 [MOTESANIB],> 2000 nM

# Tested on: ES8;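 also: growth inhibition of human ES8 cells, read out with a cell viability assay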
# Assay: cells
# Type: functional, cell-based, Homo sapiens
# Settings: Homo sapiens, ES8
# Description: SANGER: Inhibition of human ES8 cell growth in a cell viability assay.
row,Structure (SMILES),IC50
1,CC1(C)CNc2cc(NC(=O)c3cccnc3NCc3ccncc3)ccc21 [MOTESANIB],> 2000 nM

# Tested on: LU-134-A
# Assay: cells
# Type: functional, cell-based, Homo sapiens
# Settings: Homo sapiens, LU-134-A
# Description: SANGER: Inhibition of human LU-134-A cell growth in a cell viability assay.
row,Structure (SMILES),IC50
1,CC1(C)CNc2cc(NC(=O)c3cccnc3NCc3ccncc3)ccc21 [MOTESANIB],> 2000 nM

# Tested on: HD-MY-Z;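 also: growth inhibition of HD-MY-Z cells, read out with a cell viability assay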
# Assay: cells
# Type: functional, cell-based, Homo sapiens
# Settings: Homo sapiens, HD-MY-Z
# Description: SANGER: Inhibition of human HD-MY-Z cell growth in a cell viability assay.
row,Structure (SMILES),IC50
1,CC1(C)CNc2cc(NC(=O)c3cccnc3NCc3ccncc3)ccc21 [MOTESANIB],> 2000 nM

# Tested on: IST-MES1;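 also: growth inhibition of IST-MES1 cells, measured with a cell viability assay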
# Assay: cells
# Type: functional, cell-based, Homo sapiens
# Settings: Homo sapiens, IST-MES1
# Description: SANGER: Inhibition of human IST-MES1 cell growth in a cell viability assay.
row,Structure (SMILES),IC50
1,CC1(C)CNc2cc(NC(=O)c3cccnc3NCc3ccncc3)ccc21 [MOTESANIB],> 2000 nM

# Tested on: HL-60;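 also: growth inhibition of human HL-60 cells, read out with a cell viability assay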
# Assay: cells
# Type: functional, cell-based, Homo sapiens
# Settings: Homo sapiens, HL-60
# Description: SANGER: Inhibition of human HL-60 cell growth in a cell viability assay.
row,Structure (SMILES),IC50
1,CC1(C)CNc2cc(NC(=O)c3cccnc3NCc3ccncc3)ccc21 [MOTESANIB],> 2000 nM

# Tested on: MC116;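 also: growth inhibition of MC116 cells, read out with a cell viability assay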
# Assay: cells
# Type: functional, cell-based, Homo sapiens
# Settings: Homo sapiens, MC116
# Description: SANGER: Inhibition of human MC116 cell growth in a cell viability assay.
row,Structure (SMILES),IC50
1,CC1(C)CNc2cc(NC(=O)c3cccnc3NCc3ccncc3)ccc21 [MOTESANIB],> 2000 nM

# Tested on: LU-139
# Assay: cells
# Type: functional, cell-based, Homo sapiens
# Settings: Homo sapiens, LU-139
# Description: SANGER: Inhibition of human LU-139 cell growth in a cell viability assay.
row,Structure (SMILES),IC50
1,CC1(C)CNc2cc(NC(=O)c3cccnc3NCc3ccncc3)ccc21 [MOTESANIB],> 2000 nM

# Tested on: HCC1187;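 also: growth inhibition of HCC1187 cells, read out with a cell viability assay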
# Assay: cells
# Type: functional, cell-based, Homo sapiens
# Settings: Homo sapiens, HCC1187
# Description: SANGER: Inhibition of human HCC1187 cell growth in a cell viability assay.
row,Structure (SMILES),IC50
1,CC1(C)CNc2cc(NC(=O)c3cccnc3NCc3ccncc3)ccc21 [MOTESANIB],> 2000 nM

# Tested on: COR-L88;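 also: growth inhibition of COR-L88 cells, read out with a cell viability assay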
# Assay: cells
# Type: functional, cell-based, Homo sapiens
# Settings: Homo sapiens, COR-L88
# Description: SANGER: Inhibition of human COR-L88 cell growth in a cell viability assay.
row,Structure (SMILES),IC50
1,CC1(C)CNc2cc(NC(=O)c3cccnc3NCc3ccncc3)ccc21 [MOTESANIB],> 2000 nM

# Tested on: NOS-1;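 also: growth inhibition of the human NOS-1 cell line, read out with a cell viability assay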
# Assay: cells
# Type: functional, cell-based, Homo sapiens
# Settings: Homo sapiens, NOS-1
# Description: SANGER: Inhibition of human NOS-1 cell growth in a cell viability assay.
row,Structure (SMILES),IC50
1,CC1(C)CNc2cc(NC(=O)c3cccnc3NCc3ccncc3)ccc21 [MOTESANIB],> 2000 nM

# Tested on: ES5;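 also: growth inhibition of human ES5 cells, read out by a cell viability assay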
# Assay: cells
# Type: functional, cell-based, Homo sapiens
# Settings: Homo sapiens, ES5
# Description: SANGER: Inhibition of human ES5 cell growth in a cell viability assay.
row,Structure (SMILES),IC50
1,CC1(C)CNc2cc(NC(=O)c3cccnc3NCc3ccncc3)ccc21 [MOTESANIB],> 2000 nM

# Tested on: HCE-4;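 also: cell viability assay measuring inhibition of growth in the human HCE-4 cell line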
# Assay: cells
# Type: functional, cell-based, Homo sapiens
# Settings: Homo sapiens, HCE-4
# Description: SANGER: Inhibition of human HCE-4 cell growth in a cell viability assay.
row,Structure (SMILES),IC50
1,CC1(C)CNc2cc(NC(=O)c3cccnc3NCc3ccncc3)ccc21 [MOTESANIB],> 2000 nM

# Tested on: GI-1;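 also: growth inhibition of human GI-1 cells, measured with a cell viability readout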
# Assay: cells
# Type: functional, cell-based, Homo sapiens
# Settings: Homo sapiens, GI-1
# Description: SANGER: Inhibition of human GI-1 cell growth in a cell viability assay.
row,Structure (SMILES),IC50
1,CC1(C)CNc2cc(NC(=O)c3cccnc3NCc3ccncc3)ccc21 [MOTESANIB],> 2000 nM

# Tested on: SF-539;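 also: Read-out is a cell viability assay, with IC50 reflecting inhibition of cell growth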
# Assay: cells
# Type: functional, cell-based, Homo sapiens
# Settings: Homo sapiens, SF-539
# Description: SANGER: Inhibition of human SF539 cell growth in a cell viability assay.
row,Structure (SMILES),IC50
1,CC1(C)CNc2cc(NC(=O)c3cccnc3NCc3ccncc3)ccc21 [MOTESANIB],> 2000 nM

# Tested on: DJM-1;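 also: growth inhibition of human DJM-1 cells, read out by a cell viability assay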
# Assay: cells
# Type: functional, cell-based, Homo sapiens
# Settings: Homo sapiens, DJM-1
# Description: SANGER: Inhibition of human DJM-1 cell growth in a cell viability assay.
row,Structure (SMILES),IC50
1,CC1(C)CNc2cc(NC(=O)c3cccnc3NCc3ccncc3)ccc21 [MOTESANIB],> 2000 nM

# Tested on: K562
# Assay: cells
# Type: functional, cell-based, Homo sapiens
# Settings: Homo sapiens, K562
# Description: SANGER: Inhibition of human K-562 cell growth in a cell viability assay.
row,Structure (SMILES),IC50
1,CC1(C)CNc2cc(NC(=O)c3cccnc3NCc3ccncc3)ccc21 [MOTESANIB],> 2000 nM

# Tested on: KG-1;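 also: growth inhibition of KG-1 cells, read out by a cell viability assay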
# Assay: cells
# Type: functional, cell-based, Homo sapiens
# Settings: Homo sapiens, KG-1
# Description: SANGER: Inhibition of human KG-1 cell growth in a cell viability assay.
row,Structure (SMILES),IC50
1,CC1(C)CNc2cc(NC(=O)c3cccnc3NCc3ccncc3)ccc21 [MOTESANIB],> 2000 nM

# Tested on: RKO;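 also: growth inhibition of human RKO cells, read out with a cell viability assay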
# Assay: cells
# Type: functional, cell-based, Homo sapiens
# Settings: Homo sapiens, RKO
# Description: SANGER: Inhibition of human RKO cell growth in a cell viability assay.
row,Structure (SMILES),IC50
1,CC1(C)CNc2cc(NC(=O)c3cccnc3NCc3ccncc3)ccc21 [MOTESANIB],> 2000 nM

# Tested on: NTERA-2-cl-D1;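 also: inhibition of cell growth, measured with a cell viability assay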
# Assay: cells
# Type: functional, cell-based, Homo sapiens
# Settings: Homo sapiens, NTERA-2-cl-D1
# Description: SANGER: Inhibition of human NTERA-S-cl-D1 cell growth in a cell viability assay.
row,Structure (SMILES),IC50
1,CC1(C)CNc2cc(NC(=O)c3cccnc3NCc3ccncc3)ccc21 [MOTESANIB],> 2000 nM

# Tested on: NCI-H1155;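 also: cell growth inhibition measured by a viability assay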
# Assay: cells
# Type: functional, cell-based, Homo sapiens
# Settings: Homo sapiens, NCI-H1155
# Description: SANGER: Inhibition of human NCI-H1155 cell growth in a cell viability assay.
row,Structure (SMILES),IC50
1,CC1(C)CNc2cc(NC(=O)c3cccnc3NCc3ccncc3)ccc21 [MOTESANIB],> 2000 nM

# Tested on: NCI-H1838;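 also: growth inhibition of NCI-H1838 cells, determined with a cell viability readout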
# Assay: cells
# Type: functional, cell-based, Homo sapiens
# Settings: Homo sapiens, NCI-H1838
# Description: SANGER: Inhibition of human NCI-H1838 cell growth in a cell viability assay.
row,Structure (SMILES),IC50
1,CC1(C)CNc2cc(NC(=O)c3cccnc3NCc3ccncc3)ccc21 [MOTESANIB],> 2000 nM

# Tested on: OS-RC-2;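 also: growth inhibition of human OS-RC-2 cells, measured by a cell viability assay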
# Assay: cells
# Type: functional, cell-based, Homo sapiens
# Settings: Homo sapiens, OS-RC-2
# Description: SANGER: Inhibition of human OS-RC-2 cell growth in a cell viability assay.
row,Structure (SMILES),IC50
1,CC1(C)CNc2cc(NC(=O)c3cccnc3NCc3ccncc3)ccc21 [MOTESANIB],> 2000 nM

# Tested on: EW-16;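 also: growth inhibition of human EW-16 cells, read out as cell viability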
# Assay: cells
# Type: functional, cell-based, Homo sapiens
# Settings: Homo sapiens, EW-16
# Description: SANGER: Inhibition of human EW-16 cell growth in a cell viability assay.
row,Structure (SMILES),IC50
1,CC1(C)CNc2cc(NC(=O)c3cccnc3NCc3ccncc3)ccc21 [MOTESANIB],> 2000 nM

# Tested on: RCC10RGB;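 also: growth inhibition of human RCC10RGB cells, read out by a cell viability assay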
# Assay: cells
# Type: functional, cell-based, Homo sapiens
# Settings: Homo sapiens, RCC10RGB
# Description: SANGER: Inhibition of human RCC10RGB cell growth in a cell viability assay.
row,Structure (SMILES),IC50
1,CC1(C)CNc2cc(NC(=O)c3cccnc3NCc3ccncc3)ccc21 [MOTESANIB],> 2000 nM

# Tested on: EKVX;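 also: growth inhibition of human EKVX cells, read out with a cell viability assay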
# Assay: cells
# Type: functional, cell-based, Homo sapiens
# Settings: Homo sapiens, EKVX
# Description: SANGER: Inhibition of human EKVX cell growth in a cell viability assay.
row,Structure (SMILES),IC50
1,CC1(C)CNc2cc(NC(=O)c3cccnc3NCc3ccncc3)ccc21 [MOTESANIB],> 2000 nM

# Tested on: CW-2;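 also: growth inhibition of CW-2 cells, read out by a cell viability assay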
# Assay: cells
# Type: functional, cell-based, Homo sapiens
# Settings: Homo sapiens, CW-2
# Description: SANGER: Inhibition of human CW-2 cell growth in a cell viability assay.
row,Structure (SMILES),IC50
1,CC1(C)CNc2cc(NC(=O)c3cccnc3NCc3ccncc3)ccc21 [MOTESANIB],> 2000 nM

# Tested on: A388;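 also: growth inhibition of human A388 cells, read out with a cell viability assay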
# Assay: cells
# Type: functional, cell-based, Homo sapiens
# Settings: Homo sapiens, A388
# Description: SANGER: Inhibition of human A388 cell growth in a cell viability assay.
row,Structure (SMILES),IC50
1,CC1(C)CNc2cc(NC(=O)c3cccnc3NCc3ccncc3)ccc21 [MOTESANIB],> 2000 nM

# Tested on: MLMA;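 also: growth inhibition of MLMA cells (human), determined through a cell viability readout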
# Assay: cells
# Type: functional, cell-based, Homo sapiens
# Settings: Homo sapiens, MLMA
# Description: SANGER: Inhibition of human MLMA cell growth in a cell viability assay.
row,Structure (SMILES),IC50
1,CC1(C)CNc2cc(NC(=O)c3cccnc3NCc3ccncc3)ccc21 [MOTESANIB],> 2000 nM

# Tested on: KINGS-1;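 also: cell viability assay measuring suppression of KINGS-1 cell growth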
# Assay: cells
# Type: functional, cell-based, Homo sapiens
# Settings: Homo sapiens, KINGS-1
# Description: SANGER: Inhibition of human KINGS-1 cell growth in a cell viability assay.
row,Structure (SMILES),IC50
1,CC1(C)CNc2cc(NC(=O)c3cccnc3NCc3ccncc3)ccc21 [MOTESANIB],> 2000 nM

# Tested on: KM-H2;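 also: growth inhibition of KM-H2 cells, read out by a cell viability assay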
# Assay: cells
# Type: functional, cell-based, Homo sapiens
# Settings: Homo sapiens, KM-H2
# Description: SANGER: Inhibition of human KM-H2 cell growth in a cell viability assay.
row,Structure (SMILES),IC50
1,CC1(C)CNc2cc(NC(=O)c3cccnc3NCc3ccncc3)ccc21 [MOTESANIB],> 2000 nM

# Tested on: LB2241-RCC;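 also: cell viability assay measuring how strongly the cultured human renal carcinoma line is prevented from growing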
# Assay: cells
# Type: functional, cell-based, Homo sapiens
# Settings: Homo sapiens, LB2241-RCC
# Description: SANGER: Inhibition of human LB2241-RCC cell growth in a cell viability assay.
row,Structure (SMILES),IC50
1,CC1(C)CNc2cc(NC(=O)c3cccnc3NCc3ccncc3)ccc21 [MOTESANIB],> 2000 nM

# Tested on: Mo
# Assay: cells
# Type: functional, cell-based, Homo sapiens
# Settings: Homo sapiens, Mo
# Description: SANGER: Inhibition of human Mo-T cell growth in a cell viability assay.
row,Structure (SMILES),IC50
1,CC1(C)CNc2cc(NC(=O)c3cccnc3NCc3ccncc3)ccc21 [MOTESANIB],> 2000 nM

# Tested on: PSN1;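 also: suppression of growth of human PSN1 cells, read out by a cell viability assay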
# Assay: cells
# Type: functional, cell-based, Homo sapiens
# Settings: Homo sapiens, PSN1
# Description: SANGER: Inhibition of human PSN1 cell growth in a cell viability assay.
row,Structure (SMILES),IC50
1,CC1(C)CNc2cc(NC(=O)c3cccnc3NCc3ccncc3)ccc21 [MOTESANIB],> 2000 nM

# Tested on: A4-Fuk;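 also: growth inhibition of A4-Fuk cells, read out by a cell viability assay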
# Assay: cells
# Type: functional, cell-based, Homo sapiens
# Settings: Homo sapiens, A4-Fuk
# Description: SANGER: Inhibition of human A4-Fuk cell growth in a cell viability assay.
row,Structure (SMILES),IC50
1,CC1(C)CNc2cc(NC(=O)c3cccnc3NCc3ccncc3)ccc21 [MOTESANIB],> 2000 nM

# Tested on: SHP77;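 also: growth inhibition of human SHP-77 cells measured by a cell viability assay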
# Assay: cells
# Type: functional, cell-based, Homo sapiens, SHP-77
# Settings: Homo sapiens, SHP77
# Description: SANGER: Inhibition of human SHP-77 cell growth in a cell viability assay.
row,Structure (SMILES),IC50
1,CC1(C)CNc2cc(NC(=O)c3cccnc3NCc3ccncc3)ccc21 [MOTESANIB],> 2000 nM

# Tested on: COLO-320-HSR;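 also: growth inhibition of COLO-320-HSR cells, determined with a cell viability assay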
# Assay: cells
# Type: functional, cell-based, Homo sapiens
# Settings: Homo sapiens, COLO-320-HSR
# Description: SANGER: Inhibition of human COLO-320-HSR cell growth in a cell viability assay.
row,Structure (SMILES),IC50
1,CC1(C)CNc2cc(NC(=O)c3cccnc3NCc3ccncc3)ccc21 [MOTESANIB],> 2000 nM

# Tested on: MOLT-4;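 also: growth inhibition of MOLT-4 cells, determined with a cell viability readout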
# Assay: cells
# Type: functional, cell-based, Homo sapiens
# Settings: Homo sapiens, MOLT-4
# Description: SANGER: Inhibition of human MOLT-4 cell growth in a cell viability assay.
row,Structure (SMILES),IC50
1,CC1(C)CNc2cc(NC(=O)c3cccnc3NCc3ccncc3)ccc21 [MOTESANIB],> 2000 nM
